The test system of one assay is SW837. In words: Growth inhibition IC50 against colorectal cell lines. Type of assay: cell-based, human. The text has this:
Cell lines and cell culture. The Caco2, HCT116, HT29, SW480, and SW837 human colorectal cancer cell lines and the FHC normal human fetal colon cell line were obtained from American Type Culture Collection (Manassas, Va.). All cell lines were maintained in DF10 medium containing DMEM (Invitrogen, San Diego, Calif.) supplemented with 10% fetal bovine serum (Invitrogen). The FHC cell line was originally established from the colon of a human fetus at 13 weeks of gestation and has an epithelial morphology. Cells were cultured in an incubator with humidified air at 37° C. with 5% CO2. As an untreated solvent control, cells were treated with DMSO (Sigma Chemical Co., St. Louis, Mo.) at a final concentration of <0.1%. […] Cells to be tested against were plated onto 96-well plates (3×10^3 cells/well) and twenty-four hours later, the cells were treated with an illustrative Synergistic Polyphenol Composition, or one or more illustrative Synergistic Polyphenol Compounds. Neither the medium nor the test compounds were changed during this time period. The assay was done in triplicate. […] The medium and test compounds were not changed during this time period. As a control, the cells were treated with 0.1% DMSO. […] The numbers of cells in replica plates were then determined using a Coulter Counter (Beckman Coulter Co., Fullerton, Calif.) as described in Shimizu et al., Clin. Cancer Res. 2004: 10:1130-40.

In the next assay the test system is AP-1 promoter. In words: Transient transfection luciferase reporter assay in SW837 cells. As to conditions: 10 and 20 μg/mL, 24 hours, inhibition most apparent for this promoter. Type of assay: cell-based, human. The procedure:
(§1) Reporter assays were performed performed using the methods described in Suzui, et al., Cancer Res., 62:3997-4006 (2002). The COX-2-luciferase reporter plasmid phPES2(−327/+59) was provided by the National Cardiovascular Research Institute (Osaka, Japan). The pAP-1 luciferase reporter plasmid was provided by the National Cancer Institute (Bethesda, Md.). The NF-[…]B promoter luciferase reporter plasmid […]NF-[…]B-Luc is described in Masuda et al., Clin. Cancer Res. 7:4220-4229 (2001). One μg of DNA of the indicated luciferase reporter plasmid was transfected into SW837 human colon cancer cells (3.0×10^5 cells/35-mm diameter dish) using Lipofectin reagent (Invitrogen) in opti-MEM I medium (Invitrogen). After 24 hours the cells were treated with EGCG (0, 10, or 20 μg/mL) for 24 hours, and extracts were then prepared. Luciferase activities were determined using a luciferase assay system ([…]., Madison, Wis.). In all of these reporter assays the cells were also cotransfected with a CMV-[…]-galactosidase ([…]-gal) reporter. Luciferase activities were normalized with respect to the […]-gal activities, to correct for differences in transfection efficiency, using the methods described in Suzui, et al., Cancer Res., 62:3997-4006 (2002).
(In general: Reporter assays use an easily measured gene product as a stand-in for the process of interest.)

Another assay has as its system COX-2 promoter. Described as above. Type of assay: cell-based, human. As to conditions: 10 and 20 μg/mL, 24 hours. The procedure:
as §1

The test system of a further assay is NF-κB promoter. Described as above. As to conditions: 10 and 20 μg/mL, 24 hours. Type of assay: cell-based, human. The procedure: as §1
A further assay has as its system IGF-1 mRNA. In words: Semiquantitative RT-PCR analysis in SW837 cells. Type of assay: cell-based, human. As to conditions: 20 μg/mL, at 12 hours, additional decline at 24 and 48 hours. The procedure:
(§2) RNA extraction and semiquantitative RT-PCR analysis were performed as described above in Example 7. Total RNA was isolated from SW837 human colon cancer cells using the Trizol reagent (Invitrogen) according to the manufacturer's instructions. cDNA was amplified from 1 μg of total RNA using Superscript one-step RT-PCR with the platinum Taq system (Invitrogen). Actin specific primer sets are described in Suzui, et al., Cancer Res., 62:3997-4006 (2002). […] Each amplification cycle consisted of 0.5 minutes at 94° C. for denaturation, 0.5 minutes at 55° C. for primer annealing, and 1 minute at 72° C. for extension. After PCR amplification, the fragments were analyzed by agarose gel electrophoresis and stained with ethidium bromide. The intensities of bands were quantified with NIH Image software version 1.62.

The next assay has as its system IGFBP-3 mRNA. Nature of the assay: Semiquantitative RT-PCR analysis in SW837 cells. Type of assay: cell-based, human. As to conditions: 20 μg/mL, at 3 to 12 hours, maximum at 6 hours. Here is the method: as §2
Another assay concerns MMP-7 mRNA. In words: Semiquantitative RT-PCR analysis in SW837 cells. As to conditions: 20 μg/mL, at 12 hours, additional decrease at 24 to 48 hours. Type of assay: cell-based, human. The procedure: as §2
A further assay concerns MMP-9 mRNA. Nature of the assay: Semiquantitative RT-PCR analysis in SW837 cells. As to conditions: 20 μg/mL, at 12 hours, additional decrease at 24 to 48 hours. Type of assay: cell-based, human. Here is the method: as §2
In a further assay the test system is TGF-β2 mRNA. Nature of the assay: Semiquantitative RT-PCR analysis in SW837 cells. As to conditions: 20 μg/mL, at 3 hours. Type of assay: cell-based, human. Here is the method: as §2
For assay [1], the system named is HepG2 human liver cancer cells. In words: MTT cell proliferation assay. Type of assay: cell-based. The procedure: (§3) Using the MTT cell proliferation assay described in Example 21, and substituting HepG2 human liver cancer cells in place of SW837 cells, the effects of EGCG (20 μg/mL), an illustrative Synergistic Polyphenol Compound, on the production of IGF-1, IGF-2 and IGFBP-3 was determined. […] Accordingly, the Synergistic Polyphenol Compounds are useful for treating or preventing liver cancer.
Background: Tetrazolium assays rely on reduction of a dye to a coloured formazan, in cell work by metabolically active cells.

The test system of a further assay is IGF-1. In words: Production of growth factors in HepG2 cells. Type of assay: cell-based, human. As to conditions: 20 μg/mL, listed as EGCG. The procedure: (§4) The cells were treated with […] EGCG at 0, 3, 6, 12, 24 and 48 hours, and cell extracts were examined by Western blot analysis using the respective antibodies, or were examined by semiquantitative RT-PCR analysis using IGFBP-3 or IGF-1 specific primers.
as §3

The subject of another assay is IGF-2. In words: Production of growth factors in HepG2 cells. Type of assay: cell-based, human. As to conditions: 20 μg/mL, listed as EGCG. Here is the method:
as §4, §3

In assay [2] the test system is HT29 human colon cancer cells. Nature of the assay: DilC16-labelled plasma membrane, extraction using cold Triton X-100. Type of assay: cell-based. Here is the method: HT29 human colon cancer cells were treated with the fluorescent lipid analog DilC16, which preferentially incorporates into ordered domains in the plasma membrane.
Where [3] appears, read: HT29, Triton X-100 sensitivity and DilC16 incorporation.

Entries after “also recorded” stand apart in the source; their conditions may differ.

As a reminder, the IC50 is the midpoint of a concentration-inhibition curve. In the case of (−)-epigallocatechin gallate, in the assay with SW837, the IC50 stood at 19.6 µg/mL and the “IC50 concentration determined by MTT assays” value was 20 µg/mL. Further, the “AP-1 luciferase reporter activity” value with AP-1 promoter is listed as “inhibition”. The “COX-2 luciferase reporter activity” value with COX-2 promoter is “inhibition”. Also, in the assay with NF-κB promoter, the “NF-κB luciferase reporter activity” value was “inhibition”. For the same substance, in the assay on IGF-1 mRNA, the “level of IGF-1 mRNA” value is recorded as “decrease”. In addition, the “levels of IGFBP-3 mRNA” value in the assay on IGFBP-3 mRNA is on record as “increase”. The “cellular level of MMP-7 mRNA” value in the assay with MMP-7 mRNA is “marked decrease”. Also, the “cellular level of MMP-9 mRNA” value in the assay with MMP-9 mRNA is “marked decrease”. Moreover, the “level of TGF-β2 mRNA” value with TGF-β2 mRNA is “transiently increased”. Besides, the “IC50, growth of HepG2 cells” value in assay [1] was 21 µg/mL. For the same substance, in the assay on IGF-1, the “production of IGF-1” value was “inhibited production; also recorded: decreased the production”. Also, the “production of IGF-2” value in the assay with IGF-2 is reported as “inhibited production; also recorded: decreased the production”. Further, in assay [2] (setting [3]), the “lowest concentration at which the membrane effects were detected” value is recorded as 2 mg/mL and the “time within which the membrane effects were detected” value was no more than 5 min. Besides, in [2] (HT29 pretreated with DilC16), the “sensitivity of the plasma membrane to extraction using cold Triton X-100” value is reported as “marked increase”.

The values are drawn from US20070054868A1, “Synergistic polyphenol compounds, compositions thereof, and uses thereof” (The Trustees of Columbia University in the City of New York, priority 2005, published 2007).
